Measured values from PMC6269819, “Evaluation of the Biological Activity of Naturally Occurring 5,8-Dihydroxycoumarin” (Molecules, 2013).
Marks after values point to notes of the source that are not given here.

Columns and labels:
[1] = Total phenolic compounds (TPC), Folin-Ciocalteu method
Procedure: The content of TPC was determined by the Folin–Ciocalteu method. Calibration curve was prepared by using 1 mL reference gallic acid solutions in ethanol (0.025, 0.075, 0.100, 0.175 and 0.350 mg/mL), which were mixed with 5 mL of a standard Folin-Ciocalteu reagent and diluted with distilled water (1:10) and 4 mL of 7.5% sodium carbonate solution in distilled water. The absorption was read after 30 min at 765 nm. The concentration of TPC was expressed in mg of gallic acid equivalents (GAE) per 1 g. The TPC was calculated by the following formula: C = c × V/m (2) where C is the concentration of gallic acid, determined form the calibration curve (mg/mL); V is the volume of 5,8-DHC solution (100 mL); m is the weight of 5,8-DHC (g).

[2] = Ferric reducing/antioxidant power (FRAP) assay
Procedure: The ability of antioxidants to reduce ferric ion to the ferrous ion, (FRAP assay) is another indicator frequently used for assessing antioxidant power. Ferrous ion (Fe^2+) produced in this assay forms a blue complex (Fe^2+/TPTZ) absorbing at 593 nm. Briefly, the reagent was prepared by mixing acetate buffer (300 mM, pH 3.6), a solution of 10 mM TPTZ in 40 mM HCl, and 20 mM FeCl3 × 6H2O at 10:1:1 (v/v/v). Firstly 300 μL of freshly prepared FRAP reagent was heated to 37 °C and an absorbance (A0) of a blank reagent was read at 593 nm in a Biotek EL808 microplate reader (Winooski, VT, USA). Then 10 μL of 0.01% 5,8-DHC solution in water and 30 μL H2O were added and the absorbance (A) was recorded every 1 min during the whole monitoring period which lasted up to 30 min. The change in the absorbance (ΔA593 nm) between the final reading and A0 was calculated for each sample and related to the ΔA593 nm of a Fe^2+ reference solution which was measured simultaneously. The value is expressed in Trolox equivalents required to obtain similar reducing power.

[3] = Rapeseed oil oxidation in Oxipress apparatus; conditions: for protection factor of rapeseed oil: 120 °C, oxygen 5 bars
Procedure: The samples were prepared by mixing rapeseed oil with 0.025, 0.05 and 0.1% of DHC. Five g of oil were placed in a reactor tube and thermostated at 120 °C under oxygen atmosphere (5 bars) in Oxipress apparatus (Mikrolab, Aarhus). Pressure changes which occur due to the absorption of oxygen consumed for oil oxidation were recorded. The protection factor (PF) values of rapeseed oil in case of using 5,8-DHC were calculated by the following formula: PF = IPX/IPK(3) where IPX is induction period of sample with additive (h); IPK is induction period of sample without additive (h).

[4] = test system: Drosophila melanogaster wing cells; experiment: Somatic mutation and recombination test (SMART), wing spot test; format: in vivo
Procedure: The basic procedures for the D. melanogaster somatic mutation and recombination test (SMART) were performed according to Graf and co-workers. Two D. melanogaster strains (kindly provided by Dr. H. Frei, Zurich, Switzerland) were used in the present study: virgin females from the strain ORR/ORR; flr^3/ In (3LR) TM3, ri p^p sep l(3)89Aa bx^34e e Bd^S were mated with mwh/mwh males. The ORR strain has chromosomes 1 and 2 from a DDT-resistant Oregon line, which are characterized by constitutively over-expressed CYP450 genes. The CYP 450 enzymes play the main role in the bioactivation of xenobiotics, as well as natural products including phytochemicals. Thus, the use of this high-bioactivation strain of D. melanogaster facilitates the detection of promutagens of numerous classes of compounds. The markers mwh (multiple wing hairs) and flr^3 (misshapen, flare-like hairs) are recessive wing-hair mutations located on the third chromosome at 0.3 and 38.8 respectively.
Eggs from the crosses were collected over 10 h periods. Progeny were raised on the Instant Drosophila Medium (Sigma Chemical Co., St. Louis, MO, USA) at 25 °C. Two schedules of the larvae treatment were applied. Firstly, the crossed flies were permitted to lay eggs for 10 h in vials containing medium prepared with 5,8-DHC solution. Thus, the exposure duration was about 120 h (i.e., evolutionary period from fly egg till case-worm). According to the second schedule, the 72 ± 5 h-old larvae were exposed to 5,8-DHC by adding test solution to the surface of the medium and were fed on this medium for the rest of their development, during approximately 48 h. 5,8-DHC was dissolved in ethanol and then diluted with distilled water to the desired concentration, with the final ethanol concentration 5% v/v. The solutions were always prepared immediately before use. Solvent controls were included in all treatments. Methyl methanesulfonate was included in the assay as a positive control. Trans-heterozygous (mwh flr^+ / mwh^+ flr^3) flies were collected and stored in a 70% ethanol. The wings of adult flies were mounted on glass slides in Faure’s solution, coded and scored at 400× magnification (Nikon E200) for the presence of single (mwh or flr^3 phenotype) or twin (adjacent mwh and flr^3 clones) spots. The spots were recorded according to standard procedures. No less than 40 wings were analysed per each experimental point. Two repeated experiments were carried out.

[5] = test solution 0.1%, exposure duration 48 h
[6] = test solution 0.1%, exposure duration 120 h
[7] = test solution 0.25%, exposure duration 48 h
[8] = test solution 0.25%, exposure duration 120 h
[9] = test solution 0.5%, exposure duration 48 h
[10] = test solution 0.5%, exposure duration 120 h

SMILES: O=c1ccc2c(O)ccc(O)c2o1 [5,8-DHC, 5,8-Dihydroxycoumarin]
- content of total phenols (TPC) [1]: 581.0 ± 0.0 mg gallic acid equivalents (GAE) in 1 g
- FRAP value [2]: 577 ± 0.0 mg/g in Trolox equivalents
- rapeseed oil autooxidation induction period (IP) ([3]; 0.025 % 5,8-DHC): 3.81 h
- protection factor of rapeseed oil ([3]; 0.025% 5,8-DHC): 1.69
- rapeseed oil autooxidation induction period (IP) ([3]; 0.050 % 5,8-DHC): 5.46 h
- protection factor of rapeseed oil ([3]; 0.05% 5,8-DHC): 2.43
- rapeseed oil autooxidation induction period (IP) ([3]; 0.100 % 5,8-DHC): 8.46 h
- large single spots ([4]; 0.5% 5,8-DHC, 120 h of treatment): 0.10 spots per wing
- increase in the number of somatic mutations ([4]; 48 h treatment): no statistically significant increase
- genotoxicity in SMART ([4]; 120 h treatment): slight genotoxicity
- frequency of twin spots ([4]; range over concentrations): 0–0.04 spots per wing
- Spots/wing (±S.E.M.) [4, 5]: 0.27 ± 0.04 spots/wing
- Wings with spots (% ± S.E.M.) [4, 5]: 26.8 ± 4.5%
- Spots/wing (±S.E.M.) [4, 6]: 0.25 ± 0.04 ^a spots/wing
- Wings with spots (% ± S.E.M.) [4, 6]: 22.4 ± 4.2%
- Spots/wing (±S.E.M.) [4, 7]: 0.22 ± 0.04 spots/wing
- Wings with spots (% ± S.E.M.) [4, 7]: 21.1 ± 4.3%
- Spots/wing (±S.E.M.) [4, 8]: 0.30 ± 0.04 ^a spots/wing
- Wings with spots (% ± S.E.M.) [4, 8]: 27.1 ± 4.5^a %
- Spots/wing (±S.E.M.) [4, 9]: 0.27 ± 0.04 spots/wing
- Wings with spots (% ± S.E.M.) [4, 9]: 25.0 ± 4.4%
- Spots/wing (±S.E.M.) [4, 10]: 0.32 ± 0.04 ^a spots/wing
- Wings with spots (% ± S.E.M.) [4, 10]: 28.9 ± 4.6^a %
